These are literature values, as cited in paper PMC9054008 (Science Advances, 2022).

pIC50: −log10 of the molar value.

The target of this series is I-Ab (Mus musculus, UniProt P14434+P14483). The note with it: cited from earlier work.
I-Ab, sequence (P14434 whole entry, looked up): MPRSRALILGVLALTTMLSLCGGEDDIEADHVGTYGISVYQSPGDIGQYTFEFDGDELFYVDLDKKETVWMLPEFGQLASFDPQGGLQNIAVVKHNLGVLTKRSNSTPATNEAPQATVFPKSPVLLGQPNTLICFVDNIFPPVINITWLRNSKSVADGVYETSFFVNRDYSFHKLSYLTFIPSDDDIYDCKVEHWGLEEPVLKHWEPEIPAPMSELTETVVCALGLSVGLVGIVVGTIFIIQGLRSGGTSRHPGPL
I-Ab, sequence (P14483 whole entry, looked up): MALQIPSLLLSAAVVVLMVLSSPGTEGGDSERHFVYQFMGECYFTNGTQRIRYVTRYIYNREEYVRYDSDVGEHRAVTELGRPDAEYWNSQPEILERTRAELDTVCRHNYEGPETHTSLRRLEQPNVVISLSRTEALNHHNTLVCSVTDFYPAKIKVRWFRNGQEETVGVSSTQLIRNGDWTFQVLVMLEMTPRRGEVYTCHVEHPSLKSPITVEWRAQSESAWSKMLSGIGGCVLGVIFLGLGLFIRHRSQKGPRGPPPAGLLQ
One may read the pIC50 as −log10 of the IC50, conventionally taken in molar units. In the case of EEALNVALAVVTLLA, the pIC50 is 5.56. As to IEDAKRMIAISAKVA, the pIC50 is 5.16. Turning to ILKGVINIWGSGLLQ, the pIC50 is 5.14. In the case of KVFNTRRNTLLFLDL, the negative logarithm of the IC50 (pIC50) is 5.34. Turning to MDLADLFNAQPGLTS, the pIC50 is 5.24. Consider MGQLISFFGEIPSII, for which the pIC50 is 5.02. NSLILLECFVRSSPA: the pIC50 is 5.22. As to RHIVGKPCPKPHRLN, the pIC50 was 5.06. Consider SGDAMARNISSRTLE, for which the negative-log IC50 (pIC50) was 5.27. For TKKSIKEIASSISRL, the pIC50 was 5.42.
